Measurements reported in the supplement of paper PMC10307832.

Tests used:
Assay in all cases: relative viability (nuclei count vs DMSO), 5 days (fraction); higher = more cells survive
[1] = compound: CC1=CN2C(=O)C=C(N=C2C(=C1)C(C)NC3=CC=CC=C3)N4CCOCC4 [TGX 221] + CCNC(=O)c1noc(-c2cc(C(C)C)c(O)cc2O)c1-c1ccc(CN2CCOCC2)cc1 [Luminespib] (partner 0.01 µM)
How it was run: (§1)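 Lung cancer cell lines were seeded in 1536-well plates and dosed by pin tool the next day, with either a single drug or a fixed anchor-drug dose combined with five library-drug doses (not always all listed) spaced in √10 steps. Five days later, one step fixed the cells and stained their nuclei (final 0.05% Triton X-100, 1% formaldehyde, 1 ug/ml Hoechst), and nuclei were counted on 4× images. Relative viability is the nuclei count in treated wells divided by the count in vehicle wells, and each value is the median of duplicate plates.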

[2] = compound: O=C(CCCCCCNC(=O)c1cnc(N(c2ccccc2)c2ccccc2)nc1)NO [Ricolinostat] + CCNC(=O)c1noc(-c2cc(C(C)C)c(O)cc2O)c1-c1ccc(CN2CCOCC2)cc1 [Luminespib] (partner 0.01 µM)
How it was run: as §1

[3] = compound: O=C(CCCCCCNC(=O)c1cnc(N(c2ccccc2)c2ccccc2)nc1)NO [Ricolinostat] + C[C@@H](Oc1cc(-c2cnn(C3CCNCC3)c2)cnc1N)c1c(Cl)ccc(F)c1Cl [Crizotinib] (partner 1 µM)
How it was run: as §1

[4] = compound: O=C(CCCCCCNC(=O)c1cnc(N(c2ccccc2)c2ccccc2)nc1)NO [Ricolinostat] + N=C(N)NC(=N)NCCc1ccccc1 [Phenformin] (partner 250 µM)
How it was run: as §1

Cell Line	relative viability ([1]; first compound 0.08 µM)	relative viability ([1]; first compound 0.253 µM)	relative viability ([1]; first compound 0.8 µM)	relative viability ([1]; first compound 2.53 µM)	relative viability ([1]; first compound 8 µM)	relative viability ([2]; first compound 0.08 µM)	relative viability ([2]; first compound 0.253 µM)	relative viability ([2]; first compound 0.8 µM)	relative viability ([2]; first compound 2.53 µM)	relative viability ([3]; first compound 0.08 µM)	relative viability ([3]; first compound 0.253 µM)	relative viability ([3]; first compound 0.8 µM)	relative viability ([3]; first compound 2.53 µM)	relative viability ([4]; first compound 0.08 µM)	relative viability ([4]; first compound 0.253 µM)	relative viability ([4]; first compound 0.8 µM)	relative viability ([4]; first compound 2.53 µM)
201T	1.09	1.04	1.13	0.979	0.871	0.94	1.04	1.09	1.08	0.926	1.04	1.08	1.07	0.41	0.449	0.452	0.467
A549	–	–	–	–	–	–	–	–	–	0.757	0.714	0.581	0.291	–	0.114	0.132	0.155
A-427	0.892	0.82	0.863	0.843	0.861	–	0.81	0.605	0.698	0.747	0.869	0.82	0.63	–	0.303	0.298	0.337
ABC-1	0.477	–	0.622	0.767	0.484	0.537	0.761	0.527	0.261	1.01	1.16	0.836	0.705	0.27	0.24	0.253	0.274
BEN	0.26	0.234	0.4	0.378	0.332	0.228	0.371	0.402	0.326	0.745	0.789	0.903	0.68	0.321	0.283	0.228	0.225
CAL-12T	0.644	0.206	0.244	0.295	0.257	0.497	0.378	0.542	0.303	0.623	0.545	0.571	0.618	0.489	0.548	0.559	0.517
COR-L23	0.666	0.684	0.638	0.797	0.683	0.518	0.571	0.661	0.427	0.506	0.545	0.571	0.277	0.363	0.379	0.402	0.227
COR-L 105	0.952	0.792	0.663	0.654	0.579	–	0.746	0.765	0.749	0.669	0.854	0.643	0.646	–	0.562	0.458	0.471
Calu-6	–	–	–	–	–	–	–	–	–	0.712	0.766	0.638	0.51	–	–	–	–
ChaGo-K-1	0.584	0.617	0.574	0.559	0.505	0.679	0.633	0.561	0.577	1.13	1.08	1.05	0.997	0.537	0.494	0.46	0.513
EBC-1	–	–	–	–	–	–	–	–	–	0.186	0.163	0.164	0.224	–	–	–	–
EKVX	0.832	0.724	0.791	0.715	0.738	0.74	0.783	–	0.902	–	0.762	0.958	1.01	0.201	0.251	–	0.222
EMC-BAC-2	1.12	1.08	1.16	1.11	1.08	1.05	1.14	1.12	1.11	0.697	0.698	0.695	0.681	0.475	0.481	0.476	0.396
EPLC-272H	0.346	0.419	0.388	0.28	0.177	0.159	0.266	0.292	0.161	–	0.936	0.82	0.622	0.263	0.273	0.26	0.144
H3255	0.784	0.937	0.918	0.981	0.887	0.534	0.881	0.833	0.704	0.822	0.823	0.804	0.749	0.367	0.358	0.405	0.416
HARA	0.827	0.863	0.812	0.702	0.668	0.787	0.606	0.478	0.349	0.925	0.948	0.926	0.712	0.411	0.452	0.427	0.124
HCC-15	0.294	0.335	0.373	0.204	0.362	0.3	0.28	0.382	0.497	0.775	0.801	0.799	0.84	0.411	0.509	0.486	0.496
HCC-44	–	1.09	1.03	1.04	0.734	0.98	1.04	1.02	0.911	0.836	0.753	0.774	0.592	0.186	0.265	0.169	0.166
HCC-78	–	–	–	–	–	–	–	–	–	–	0.288	0.279	0.25	–	0.761	0.596	0.428
HCC-366	–	–	–	–	–	–	–	–	–	0.49	0.464	0.428	0.188	0.509	0.606	0.619	0.432

Cell Line	relative viability ([1]; first compound 0.08 µM)	relative viability ([1]; first compound 0.253 µM)	relative viability ([1]; first compound 0.8 µM)	relative viability ([1]; first compound 2.53 µM)	relative viability ([1]; first compound 8 µM)	relative viability ([2]; first compound 0.08 µM)	relative viability ([2]; first compound 0.253 µM)	relative viability ([2]; first compound 0.8 µM)	relative viability ([2]; first compound 2.53 µM)	relative viability ([3]; first compound 0.08 µM)	relative viability ([3]; first compound 0.253 µM)	relative viability ([3]; first compound 0.8 µM)	relative viability ([3]; first compound 2.53 µM)	relative viability ([4]; first compound 0.08 µM)	relative viability ([4]; first compound 0.253 µM)	relative viability ([4]; first compound 0.8 µM)	relative viability ([4]; first compound 2.53 µM)
HCC-827	0.475	0.444	0.872	0.426	0.451	0.581	0.76	0.487	0.552	0.827	0.956	0.841	0.846	0.345	0.4	0.396	0.435
HOP-62	0.919	0.951	0.981	0.88	0.632	0.84	0.857	0.884	0.747	0.912	0.855	0.924	0.87	0.586	0.657	0.623	0.503
IA-LM	–	–	–	–	–	–	–	–	–	–	0.763	0.784	0.578	–	–	–	–
LC-2-ad	0.957	0.941	1.18	1.01	0.907	0.8	0.987	0.98	0.869	–	0.44	0.445	0.484	0.47	0.621	0.5	0.44
LCLC-97TM1	0.732	0.63	0.821	0.602	0.834	0.651	0.752	0.565	0.561	0.363	0.435	0.277	0.286	0.314	0.417	0.45	0.204
LCLC-103H	1.01	0.988	1.02	0.806	0.763	0.869	0.887	0.862	0.829	0.951	1.02	1.04	1.05	0.252	0.323	0.371	0.325
LK-2	0.17	0.2	0.187	0.214	0.207	0.18	0.191	0.168	0.177	–	0.259	0.213	0.253	0.415	0.547	0.499	0.449
LOU-NH91	0.332	0.358	0.323	0.317	0.31	0.322	0.371	0.347	0.313	–	0.738	0.734	0.783	0.516	0.726	0.713	0.744
LU99A	0.251	0.31	0.208	0.249	0.316	0.254	0.224	0.239	0.25	0.581	0.604	0.38	0.409	0.738	0.705	0.716	0.597
LXF-289	0.667	0.686	0.77	0.47	0.513	0.579	0.655	0.692	0.672	0.804	0.852	0.804	0.719	0.495	0.463	0.538	0.529
NCI-H23	0.196	0.225	0.217	0.21	0.208	–	0.203	0.214	0.169	0.534	0.565	0.665	0.445	0.72	0.749	0.8	0.706
NCI-H522	1.09	1.04	1.01	1.11	1.42	1.39	1.01	1.28	1.19	–	–	–	–	0.609	0.559	0.704	0.829
NCI-H1299	–	–	–	–	–	–	–	–	–	0.928	0.917	0.974	0.891	–	–	–	–
NCI-H1395	0.684	0.721	0.603	0.514	0.453	–	0.792	0.859	0.528	–	–	–	–	–	0.48	0.425	0.463
NCI-H1623	0.427	0.457	0.471	0.463	0.438	0.481	0.517	0.541	0.523	–	–	–	–	0.559	0.582	0.557	0.556
NCI-H1703	–	–	–	–	–	–	–	–	–	0.63	1.02	0.891	0.612	–	–	–	–
NCI-H1793	0.198	0.265	0.174	0.127	0.155	–	0.15	0.171	0.145	–	–	–	–	–	0.438	0.355	0.369
NCI-H2342	0.919	0.652	0.584	0.544	0.607	0.541	0.78	0.835	0.762	–	–	–	–	0.475	0.578	0.614	0.713
SW 900	0.18	0.167	0.153	0.132	0.148	0.166	0.164	0.183	0.17	–	–	–	–	0.441	0.635	0.433	0.48
